Measured values reported in the supplement of paper PMC10627819.

Assays:
S. aureus DSM 20231 = assay: Bliss interaction score (quartile over a dose matrix) (fitness difference); higher = more antagonism (negative = synergy)
How it was run: (§1)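 Fitness was OD595 at entry into stationary phase divided by the plate's robust no-drug mean and capped at 1; single-drug fitness was inferred from combination data. The Bliss score is observed minus expected (product) fitness, summarised by quartiles over technical, biological and donor/recipient replicates.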

B. subtilis 168 = assay: as above
How it was run: as §1

S. aureus Newman = assay: as above
How it was run: as §1

S. pneumoniae D39V [1] = assay: as above
How it was run: as §1

S. pneumoniae D39V [2] = assay: fitness (endpoint OD595 vs no drug) (fraction); higher = more growth
How it was run: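 At 37 °C, bacteria in TSB, LB Lennox or CY were grown in 384-well plates from a starting OD595 of 0.01. OD595 was measured every 30 min for 14 h, with the first reading used as background. Fitness is the optical density at the switch to stationary phase as a fraction of the robust mean of no-drug control wells, capped at 1.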
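Wherever Bliss interaction score (quartile over a dose matrix) is given: first quartile when negative (synergy) and third quartile when positive (antagonism).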

O=C1CN(/N=C/c2ccc([N+](=O)[O-])o2)C(=O)N1 [Nitrofurantoin] + CCN(CC)CCOC(=O)c1ccc(N)cc1 [Procaine]
Conditions | Bliss interaction score
B. subtilis 168 | 0.106
S. aureus DSM 20231 | 0.0706
S. aureus Newman | 0.0593
S. pneumoniae D39V [1] | 0.0619

fitness, S. pneumoniae D39V [2]
Conditions | partner 85.5 µg/mL | partner 171 µg/mL | partner 342 µg/mL
first compound 1.285 µg/mL | 0.994 | 0.987 | 0.994
first compound 2.57 µg/mL | 0.972 | 0.964 | 0.934

fitness, S. pneumoniae D39V [2], one replicate
Conditions | first compound 2 µg/mL | first compound 4 µg/mL | first compound 5.14 µg/mL | first compound 8 µg/mL
partner 85.5 µg/mL | 0.964 | 0.951 | 0.921 | 0.858
partner 171 µg/mL | ≥ 1 | 0.979 | 0.943 | 0.908
partner 342 µg/mL | 0.914 | 0.879 | 0.918 | 0.837

O=C1CN(/N=C/c2ccc([N+](=O)[O-])o2)C(=O)N1 [Nitrofurantoin] + CN1C2=CC=CC=C2N=C3C1=CC=CC3=O [Pyocyanin]
Conditions | Bliss interaction score
B. subtilis 168 | 0.0805
S. aureus DSM 20231 | -0.0533
S. aureus Newman | -0.0575
S. pneumoniae D39V [1] | -0.199

fitness, S. pneumoniae D39V [2]
Conditions | partner 0.325 µg/mL | partner 0.65 µg/mL | partner 1.3 µg/mL
first compound 1.285 µg/mL | 0.979 | 0.919 | 0.634
first compound 2.57 µg/mL | 0.94 | 0.796 | 0.444

fitness, S. pneumoniae D39V [2], one replicate
Conditions | first compound 2 µg/mL | first compound 4 µg/mL | first compound 5.14 µg/mL | first compound 8 µg/mL
partner 0.325 µg/mL | ≥ 1 | ≥ 1 | 0.798 | 0.738
partner 0.65 µg/mL | ≥ 1 | 0.982 | 0.637 | 0.814
partner 1.3 µg/mL | – | – | 0.332 | –

O=C1CN(/N=C/c2ccc([N+](=O)[O-])o2)C(=O)N1 [Nitrofurantoin] + CN(C)c1cc(NC(=O)CNC(C)(C)C)c(O)c2c1C[C@H]1C[C@H]3[C@H](N(C)C)C(O)=C(C(N)=O)C(=O)[C@@]3(O)C(O)=C1C2=O [Tigecycline]
Conditions | Bliss interaction score
B. subtilis 168 | 0.178
S. aureus DSM 20231 | 0.0547
S. aureus Newman | 0.0708
S. pneumoniae D39V [1] | 0.0879

fitness, S. pneumoniae D39V [2]
Conditions | first compound 1.285 µg/mL | first compound 2 µg/mL | first compound 2.57 µg/mL | first compound 4 µg/mL | first compound 8 µg/mL
partner 0.65 µg/mL | 0.939 | 0.96 | 0.932 | 0.971 | 0.921
partner 1.3 µg/mL | 0.957 | 0.958 | 0.957 | 0.941 | 0.881
partner 2.6 µg/mL | 0.949 | 0.919 | 0.936 | 0.937 | 0.9

S. pneumoniae D39V [2], first compound 5.14 µg/mL, one replicate
Conditions | fitness
partner 0.65 µg/mL | 0.922
partner 1.3 µg/mL | 0.92
partner 2.6 µg/mL | 0.894
